In patent publication US20260335514A1, “Drug-Coated Medical Devices & Methods of Making” (Bard Peripheral Vascular, Inc., priority 2022, published 2026):
Values after ≈ are worked out from the molar mass of the structure shown. Values joined by “and” are separate entries in the source; they are usually repeats but may differ in a detail not shown here. Equal values may be shown once. Read-outs that look alike come from different tables or passages of the source.

Tests used:
solubility in PBS = type: physicochemical
Method: Drug coatings with crystalline forms of tyrosine kinase inhibitors were also examined. Sunitinib was again chosen as the candidate drug and crystal pamoate salts were prepared by recrystaliization in ethanol or ethanol and DMF for a hemi-pamoate.

[1] = cited from earlier work
[2] = test system: femoral arteries of porcine model; assay: morphometry of stented arteries (Example 4); type: in vivo; settings: for amount of restenosis observed (in words): 60 and 90 days
Method: (§1) In Example 4, formulations for stent drug coatings were prepared as subsequently described, followed by obtaining 7, 28, 60, and 90 days histological data from in vivo studies when implanted in femoral arteries of porcine model.
(§2) Five total formulations were used: a control of PVDF only, prepared at a concentration of 5 mg/mL in a solution of 90% acetone and 10% cyclohexane; a colchicine coating, prepared in a 5:1 PVDF: colchicine ratio with 5 mg/mL provided to 90% acetone and 10% DMF; a roflumilast coating at a 5:1 PVDF:roflumilast ratio, with […] provided to a 42.5% EtOAc, 50% acetone, and 7.5% DMF solution; a tadalafil coating prepared at 3:1 PVDF:tadalafil, provided at 5 mg/mL in a solution of 30% EtOAc, 60% acetone, and 10% DMF; and a sunitinib coating provided at 3:1 PVDF:sunitinib malate, prepared at 5 mg/mL in a solution of 60% MeOAc, 30% acetone, and 10% DMF. Coatings were provided to 5×40 mm and 6×40 mm stents. Loading concentrations were assessed prior to and after ETO (ethylene oxide) sterilization and no discernable change was noted by the process.
(§3) Histological studies were then performed at 60 and 90 days.

[3] = test system: femoral arteries of porcine model; assay: histology of stented arteries (Example 4); type: in vivo
Method: as §1, §2, §3

[4] = test system: femoral arteries of porcine model; assay: in vivo pharmacokinetics of drug coated stents (Example 4); settings: 7 and 28 days after implantation; preliminary; FIG. 10
Method: as §1, §2
FIG. 10 sets forth some preliminary pharmacokinetic data obtained from the prepared stents at 7 and 28 days after implantation within the pigs.

[5] = octanol-water; cited from earlier work

Row | Fibrin % ([3]; 60 days) [%] | Giant cell % ([3]; 60 days) [%] | Inflammation Score ([3]; 60 days) | PGs/Collagen score ([3]; 60 days) | Fibrin % ([3]; 90 days) [%] | Giant cell % ([3]; 90 days) [%] | Inflammation Score ([3]; 90 days) | PGs/Collagen score ([3]; 90 days) | solubility in PBS (solubility in PBS) [µM] | Compound | Restenosis % area ([3]; 60 days) [%] | Restenosis % area ([3]; 90 days) [%] | further results
1 | 33.17 | 4.14 | 1.19 | 1.06 | 1.0 | 2.03 | 0.25 | 1.31 |  | CCN(CC)CCNC(=O)c1c(C)[nH]c(/C=C2\C(=O)Nc3ccc(F)cc32)c1C [Sunitinib, sunitinib] | 33.76 | 30.77 | amount of restenosis observed (in words) [2]: improvements in the amount of restenosis observed; percentage of stenosis (in words) ([2]; 60 days): similar
2 |  |  |  |  |  |  |  |  | 9.6 | CCN(CC)CCNC(=O)c1c(C)[nH]c(/C=C2\C(=O)Nc3ccc(F)cc32)c1C [pamoate crystal] |  |  | 
3 |  |  |  |  |  |  |  |  | 6.02 (≈ 2.4 µg/mL) | CCN(CC)CCNC(=O)c1c(C)[nH]c(/C=C2\C(=O)Nc3ccc(F)cc32)c1C [hemi-pamoate] |  |  | 
4 | 26.69 | 7.26 | 1.19 | 1.44 | 1.31 | 30.12 | 1.94 | 1.38 |  | CN1CC(=O)N2[C@H](c3ccc4c(c3)OCO4)c3[nH]c4ccccc4c3C[C@@H]2C1=O [Tadalafil, tadalafil] | 35.38 | 27.4 | pharmacokinetic data versus target (in words) [4]: lower than expected; amount of restenosis observed (in words) [2]: improvements in the amount of restenosis observed; percentage of stenosis (in words) ([2]; 60 days): similar

Continued, compound first:

Row | Compound | Fibrin % ([3]; 60 days) [%] | Giant cell % ([3]; 60 days) [%] | Inflammation Score ([3]; 60 days) | PGs/Collagen score ([3]; 60 days) | Fibrin % ([3]; 90 days) [%] | Giant cell % ([3]; 90 days) [%] | Inflammation Score ([3]; 90 days) | PGs/Collagen score ([3]; 90 days) | solubility in PBS (solubility in PBS) [µM] | Restenosis % area ([3]; 60 days) [%] | Restenosis % area ([3]; 90 days) [%] | further results
5 | CCN(CC)CCNC(=O)c1c(C)[nH]c(/C=C2\C(=O)Nc3ccc(F)cc32)c1C [sunitinib malate] |  |  |  |  |  |  |  |  |  |  |  | solubility in PBS (solubility in PBS; listed as malate salt): 1231 µM; water solubility [1]: about 25 mg/mL
6 | COc1cc2c(c(OC)c1OC)-c1ccc(OC)c(=O)cc1[C@@H](NC(C)=O)CC2 [Colchicine, colchicine] |  |  |  |  |  |  |  |  |  |  |  | % Stenosis ([2]; pig, in vivo): 67.45% and 81.83%; Medial Area ([2]; pig, in vivo): 1.22; percentage of stenosis (in words) ([2]; pig, in vivo): seemingly accelerated amount of stenosis; Inflammation Score ([3]; pig, in vivo): 3.06; Restenosis % area ([3]; pig, in vivo): 67.45% and 81.83%
7 | O=C(Nc1c(Cl)cncc1Cl)c1ccc(OC(F)F)c(OCC2CC2)c1 [Roflumilast, roflumilast] | 16.65 | 0.49 | 0.69 | 0.75 | 1.0 | 0.0 | 0.56 | 1.44 |  | 40.45 | 30.69 | pharmacokinetic data versus target (in words) [4]: expected target ranges
8 | CC(=O)O[C@H]1C(=O)[C@@]2(C)[C@H]([C@H](OC(=O)c3ccccc3)[C@]3(O)C[C@H](OC(=O)[C@H](O)[C@@H](NC(=O)c4ccccc4)c4ccccc4)C(C)=C1C3(C)C)[C@]1(OC(C)=O)CO[C@@H]1C[C@@H]2O [paclitaxel] |  |  |  |  |  |  |  |  |  |  |  | log P [5]: 7.4
9 | CCN(CC)CCNC(=O)c1c(C)[nH]c(/C=C2\C(=O)Nc3ccc(F)cc32)c1C [Sunitinib as a free base, sunitinib] |  |  |  |  |  |  |  |  | 26.4 (≈ 10.5 µg/mL) |  |  | 
